Measured values: patent publication US20260373165A1, “PHARMACEUTICAL COMBINATIONS AND COMPOSITIONS, AND METHODS OF USE THEREOF” (SHENZHEN HIGHTIDE BIOPHARMACEUTICAL LTD., priority 2022, published 2026)
Entries after “also recorded” stand apart in the source; their conditions may differ.

Tests used:
Assay type in all cases: in vivo, mouse (C57BL/6J male, 60% HFD DIO)
[1] = Example 2: lean mass by MRI on day 23
Text: (§1) After 5-6-week-old C57BL/6J male mice were acclimatized for 1 week, the weight of each mouse was weighed, and the mice were randomly divided into a control group and a model group by taking the weight as a main index, where 12 mice in the control group were fed with common feed (CD), and the mice in the remaining model group were fed with 60% high-fat feed (60% HFD) for 10-12 weeks to construct a DIO obesity model, with the average body weight being not less than 40 g. The mice fed with 60% HFD were grabbed and acclimatized with a solvent for 3 days, where the acclimatization with a solvent was performed by oral gavage of 0.5% CMC-Na, once daily.
(§2) The food intake, the body weight, the body fat ratio, and the insulin level of the mice were respectively measured, followed by fasting blood glucose level, and the mice were randomly grouped according to Table 12 by taking the body weight as an index, and the remaining ungrouped mice were euthanized. After grouping, each group of mice was administered according to Table 12, the day of administration was defined as DO, and the administration volume of each drug was determined based on the results obtained by the calculation of 5 μL/g× mouse body weight (g).
(§3) For the combined administration group, the administration sequence and the administration time were kept consistent at each administration. The mice were continuously fed with high-fat feed during the administration period until the administration was finished. During administration, 1 food intake was measured per week (difference in feed weights at an interval of 24 h was measured); each group of mice was weighed once daily; blood was collected from the tail tip on day 16 and day 30, respectively, so as to measure fasting blood glucose levels once (blood was collected after fasting from 9:00 am to 3:[…]); on day 24 of administration (D23), the body fat ratio and the lean mass of each group of mice were measured by MRI (the measurement period was kept consistent with that before grouping); after 25 days of administration intervention (day 24), each group of mice was fasted for 6 h and subjected to OGTT (0 min, 15 min, 30 min, 60 min, 90 min, 120 min) to detect their blood glucose levels; after 29 days of administration intervention (day 28), each group of mice was fasted for 6 h and subjected to OGTT (0 min, 15 min, 30 min, 60 min, 90 min, 120 min), and meanwhile subjected to blood sampling via submaxillary vein (0 min, 15 min, 30 min, about 30 μL of blood sampled each time), and then the blood plasma was separated for detecting the insulin level by ELISA, where the separated blood plasma was more than 10 μL; the next day (D30) at the end of administration was set as the test endpoint, and the mice were fasted for 6 h in the morning and subjected to fasting blood glucose level measurement; subsequently, the mice were euthanized with CO2, blood was collected from the heart of each mouse for analysis, and each group of mice was dissected; the liver and subcutaneous, epididymal and mesenteric fat was collected, photographed and weighed, respectively.
The body weight, the lean mass and the lean ratio of each animal in groups G1 to G8 were measured on day 23 and averaged for each group, and the results are shown in Table 16 below, and FIGS. 23 and 24.

[2] = Example 2: body fat mass by MRI on day 23
Text: as §1, §2, §3
The body weight, the body fat mass and the body fat ratio of each animal in groups G1 to G8 were measured on day 23 and averaged for each group, and the results are shown in Table 15 below, and FIGS. 21 and 22.

[3] = Example 2: body weight and body weight change rate, combined administration of HTD1801 and dapagliflozin or empagliflozin in DIO obesity model; conditions: HTD1801 250 mpk, dapagliflozin 10 mpk, empagliflozin 15 mpk p.o. QD, semaglutide 10 nmol/kg s.c. Q3D
Text: as §1, §2, §3

[4] = mean, day 23, HTD1801 250 mpk, dapagliflozin 10 mpk, empagliflozin 15 mpk p.o. QD

OC[C@H]1O[C@@H](c2ccc(Cl)c(Cc3ccc(O[C@H]4CCOC4)cc3)c2)[C@H](O)[C@@H](O)[C@@H]1O [Empagliflozin, empagliflozin]
lean ratio (in words) ([1]; day 23, relative to model control group G2): slightly decreased | Body weight ([1]; mean, day 23 (Table 16), HTD1801 250 mpk, dapagliflozin 10 mpk, empagliflozin 15 mpk p.o. QD): 46.8 g | Lean (lean mass) [1, 4]: 4.2 g | Lean ratio [1, 4]: 9.1% | body fat mass and body fat ratio (in words) ([2]; day 23, relative to control group G2): increased | Body weight ([2]; mean, day 23 (Table 15), HTD1801 250 mpk, dapagliflozin 10 mpk, empagliflozin 15 mpk p.o. QD): 46.8 g | Body fat ratio [2, 4]: 49.3% | Fat (body fat mass) [2, 4]: 23.0 g | body weight change / weight loss effect (in words) [3]: basically kept unchanged; also recorded: could not achieve the weight loss effect | Body weight (mean) ([3]; day 0 (baseline)): 46.2 g | Body weight change rate ([3]; day 0 (baseline)): 0.0% | Body weight (mean) ([3]; day 1): 46.3 g | Body weight change rate ([3]; day 1): 0.4% | Body weight (mean) ([3]; day 2): 46.1 g | Body weight change rate ([3]; day 2): −0.2% | Body weight (mean) ([3]; day 3): 46.0 g | Body weight change rate ([3]; day 3): −0.3% | Body weight (mean) ([3]; day 4): 46.0 g | Body weight change rate ([3]; day 4): −0.5% | Body weight (mean) ([3]; day 5): 45.6 g | Body weight change rate ([3]; day 5): −1.3% | Body weight (mean) ([3]; day 6): 45.8 g | Body weight change rate ([3]; day 6): −0.8% | Body weight (mean) ([3]; day 7): 46.0 g | Body weight change rate ([3]; day 7): −0.4% | Body weight (mean) ([3]; day 8): 45.6 g | Body weight change rate ([3]; day 8): −1.2% | Body weight (mean) ([3]; day 9): 45.5 g | Body weight change rate ([3]; day 9): −1.5% | Body weight (mean) ([3]; day 10): 45.4 g | Body weight change rate ([3]; day 10): −1.7% | Body weight (mean) ([3]; day 11): 45.6 g | Body weight change rate ([3]; day 11): −1.2% | Body weight (mean) ([3]; day 12): 45.5 g | Body weight change rate ([3]; day 12): −1.6% | Body weight (mean) ([3]; day 13): 45.3 g | Body weight change rate ([3]; day 13): −1.9% | Body weight (mean) ([3]; day 14): 45.6 g | Body weight change rate ([3]; day 14): −1.3% | Body weight (mean) ([3]; day 15): 45.6 g | Body weight change rate ([3]; day 15): −1.4% | Body weight (mean) ([3]; day 16): 45.3 g | Body weight change rate ([3]; day 16): −1.9% | Body weight (mean) ([3]; day 17): 45.7 g | Body weight change rate ([3]; day 17): −1.1% | Body weight (mean) ([3]; day 18): 45.7 g | Body weight change rate ([3]; day 18): −1.0% | Body weight (mean) ([3]; day 19): 45.7 g | Body weight change rate ([3]; day 19): −1.2% | Body weight (mean) ([3]; day 20): 45.8 g | Body weight change rate ([3]; day 20): −0.8% | Body weight (mean) ([3]; day 21): 46.0 g | Body weight change rate ([3]; day 21): −0.4% | Body weight (mean) ([3]; day 22): 46.2 g | Body weight change rate ([3]; day 22): −0.1% | Body weight (mean) ([3]; day 23): 46.1 g | Body weight change rate ([3]; day 23): −0.1% | Body weight (mean) ([3]; day 24): 45.7 g | Body weight change rate ([3]; day 24): −1.1% | Body weight (mean) ([3]; day 25): 46.0 g | Body weight change rate ([3]; day 25): −0.4% | Body weight (mean) ([3]; day 26): 46.6 g | Body weight change rate ([3]; day 26): 0.9% | Body weight (mean) ([3]; day 27): 46.5 g | Body weight change rate ([3]; day 27): 0.7% | Body weight (mean) ([3]; day 28): 46.0 g | Body weight change rate ([3]; day 28): −0.4% | Body weight (mean) ([3]; day 29): 46.5 g | Body weight change rate ([3]; day 29): 0.8%
